Data set [1] concerns Plasmopora viticola.
In data set [2] the test system is Grape leaves (C. V. Niagara). Conditions: in vivo.

The structures appear in SMILES notation. Numbered stars: 1 amine (or outer) side, 2 acyl side, 3 side chain; on linkers, the order of the positions; unused ones are H or OH. Square brackets hold non-standard residues; d marks the D form. Peptide text beside a SMILES is read from it. X1 = CCC(N[*:1])C(C)C(=O)O[C@H](C(=O)[*:2])[C@@H](C)CC; X2 = C[C@H](N[*:1])C(=O)C(C)(C)C(=O)[*:2]; NMeY = CN[C@@H](Cc1ccc(O)cc1)C(=O)O; NMeI = CC[C@H](C)[C@H](NC)C(=O)O; NMeV = CN[C@H](C(=O)O)C(C)C

Turning to `CCC1NC(=O)[C@H](C)NC(=O)C(C)(C)C(=O)[C@H](C)NC(=O)[C@H](Cc2ccc(OC)cc2)N(C)C(=O)[C@H](C(C)C)N(C)C(=O)CNC(=O)[C@H]([C@@H](C)CC)N(C)C(=O)CNC(=O)[C@H]([C@@H](C)CC)OC(=O)C1C` (stereo partly drawn) [Majusculamide C, majusculamide C] (cyclo(A[X1]G[NMeI]G[NMeV][NMeY](Me)[X2])), the “In vivo effectiveness against grape downy mildew” value in data set [1] was “effective”. In addition, the Control of fungus entry in data set [1] (in vivo) was “control”. In addition, in data set [2], the “Phytotoxicity rating, grape leaves” value was 0.

The record behind these values is US4342751A (priority 1981, dated 1982).
